Source: patent publication US20260193116A1, “MEMBRANE TREATMENT METHOD, BIOFOULING INHIBITION METHOD, AND ENDOTOXIN PRODUCTION INHIBITION METHOD IN WATER SYSTEM” (KURITA WATER INDUSTRIES LTD., priority 2022, published 2026)

Assays:
[1] = system: biofouling of RO membrane (MFS cell); test: MFS water flow test (Example 3): differential pressure increase of the RO membrane cell; conditions: citric acid + ammonium chloride + sodium phosphate, 35° C., 0.36 mg/L as Cl2 (DPD method), Continuous addition
[2] = system: bacterial flora in a biofilm attached to a RO membrane surface; test: Bacterial flora analysis (16S rRNA amplicon) of biofilm attached to RO membrane surface after water flow test (Example 2)
[3] = system: biofouling of RO membrane (MFS cell); test: MFS water flow test (Example 1): differential pressure increase of the RO membrane cell

`O=S(=O)(O)NCl.[Na]` [Chlorosulfamic acid, sodium monochlorosulfamic acid] was tested, and the “Differential pressure suppression effect vs Control” value [1] was 95%, the “(Negative bacteria/[negative bacteria + positive bacterial]) (%)” value [2] was 18.2% and the “Acidovorax existence ratio in bacterial flora” value [2] was 0.1%. The “Azotobacter existence ratio in bacterial flora” value [2] was 0.4%, the “Cupriavidus existence ratio in bacterial flora” value [2] was 4.6% and the “Dominant bacteria in the biofilm (in words)” value [2] was “Mycolicibacterium genus bacteria and Mycobacterium genus bacteria, which are gram-positive bacteria, were dominant”. For the same compound, the “Gram-negative bacteria (%)” value [2] was 16.7%, the “Gram-negative bacteria Others existence ratio in bacterial flora” value [2] was 6.5% and the “Gram-positive bacteria existence ratio in bacterial flora” value [2] was 75.1%. For the same compound, the “Pseudomonas existence ratio in bacterial flora” value [2] was 4.8%, the “Ralstonia existence ratio in bacterial flora” value [2] was 0.3% and the “Unknown bacteria existence ratio in bacterial flora” value [2] was 8.2%. The “Differential pressure suppression effect vs Control” value [3] was 102%.
